Measured values reported in patent US20080009418A1, “Selective Inhibitors” (Alchemia LTD., priority 2004, published 2008).

Legend:
Settings in all cases: compound at 10 μM
[1] = target: T1, Human μ-opioid (MOP) (Homo sapiens, UniProt P35372); experiment: Radioligand binding, human μ-opioid (MOP) membranes, FlashPlate, [3H]-Naloxone
T1 construct: purchased Perkin Elmer Biosignal
How it was run: (§1)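 Cloned human receptor membranes were coated onto FlashPlate wells and incubated with radioligand and compound (added from a 0.5 mM DMSO daughter plate) for 1 hour at room temperature in the dark. Scintillation counting gave percent inhibition, with DMSO defining total and reference ligand defining non-specific binding.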

[2] = target: T2, Human neurokinin (NK1) (Homo sapiens, UniProt P25103); experiment: Radioligand binding, human neurokinin NK1 membranes, filtration, [125I]-Substance P
T2 construct: purchased Perkin Elmer Biosignal
T2 sequence (P25103 whole entry): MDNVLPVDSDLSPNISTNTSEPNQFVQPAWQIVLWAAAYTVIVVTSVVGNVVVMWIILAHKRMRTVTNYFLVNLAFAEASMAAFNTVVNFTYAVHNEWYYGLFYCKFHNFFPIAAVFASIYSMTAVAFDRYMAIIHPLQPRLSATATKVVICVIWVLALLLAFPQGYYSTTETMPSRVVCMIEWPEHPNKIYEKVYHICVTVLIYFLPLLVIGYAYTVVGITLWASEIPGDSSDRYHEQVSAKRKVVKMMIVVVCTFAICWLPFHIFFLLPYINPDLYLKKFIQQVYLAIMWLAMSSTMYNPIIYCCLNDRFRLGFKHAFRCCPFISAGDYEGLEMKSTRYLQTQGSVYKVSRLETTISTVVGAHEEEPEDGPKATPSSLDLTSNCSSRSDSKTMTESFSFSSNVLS
How it was run: (§2)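 Membranes from cloned human receptors were incubated with compound and radioligand for 1 hour at room temperature. Bound ligand was collected on 0.3% PEI-soaked filters, washed with cold 50 mM Tris-HCl pH 7.4, and counted by scintillation. Percent inhibition was computed against DMSO totals and reference-ligand nonspecific wells.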

[3] = target: T3, Human Melanocortin (MC3) (Homo sapiens, UniProt P41968); experiment: Radioligand binding, human melanocortin MC3 membranes, FlashPlate, [125I]-NDP-αMSH
T3 construct: purchased Perkin Elmer Biosignal
T3 sequence (P41968 whole entry): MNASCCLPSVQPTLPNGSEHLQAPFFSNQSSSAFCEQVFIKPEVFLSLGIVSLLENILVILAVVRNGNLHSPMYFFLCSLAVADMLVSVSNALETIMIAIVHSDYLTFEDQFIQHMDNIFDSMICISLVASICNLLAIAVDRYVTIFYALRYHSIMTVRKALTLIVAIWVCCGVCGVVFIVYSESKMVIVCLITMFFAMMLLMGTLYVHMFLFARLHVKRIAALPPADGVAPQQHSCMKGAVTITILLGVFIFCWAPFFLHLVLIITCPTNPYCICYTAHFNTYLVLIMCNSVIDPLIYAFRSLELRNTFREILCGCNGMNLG
How it was run: as §1

[4] = target: T4, Human Melanocortin (MC4) (Homo sapiens, UniProt P32245); experiment: Radioligand binding, human melanocortin MC4 membranes, FlashPlate, [125I]-NDP-αMSH
T4 construct: purchased Perkin Elmer Biosignal
T4 sequence (P32245 whole entry): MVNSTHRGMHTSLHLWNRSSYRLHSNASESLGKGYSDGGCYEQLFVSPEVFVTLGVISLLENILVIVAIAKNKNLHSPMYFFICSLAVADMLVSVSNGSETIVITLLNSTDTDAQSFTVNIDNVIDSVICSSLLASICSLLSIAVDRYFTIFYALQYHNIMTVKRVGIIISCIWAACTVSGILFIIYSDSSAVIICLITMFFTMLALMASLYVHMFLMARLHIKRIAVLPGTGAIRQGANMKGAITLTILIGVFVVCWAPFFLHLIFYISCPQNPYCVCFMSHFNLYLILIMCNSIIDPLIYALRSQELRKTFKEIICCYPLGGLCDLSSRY
How it was run: as §1

[5] = target: T5, Human neuropeptide Y (NPY-Y1) (Homo sapiens, UniProt P25929); experiment: Radioligand binding, human neuropeptide Y NPY-Y1 membranes, FlashPlate, [125I]-PYY
T5 construct: purchased Perkin Elmer Biosignal
T5 sequence (P25929 1-384): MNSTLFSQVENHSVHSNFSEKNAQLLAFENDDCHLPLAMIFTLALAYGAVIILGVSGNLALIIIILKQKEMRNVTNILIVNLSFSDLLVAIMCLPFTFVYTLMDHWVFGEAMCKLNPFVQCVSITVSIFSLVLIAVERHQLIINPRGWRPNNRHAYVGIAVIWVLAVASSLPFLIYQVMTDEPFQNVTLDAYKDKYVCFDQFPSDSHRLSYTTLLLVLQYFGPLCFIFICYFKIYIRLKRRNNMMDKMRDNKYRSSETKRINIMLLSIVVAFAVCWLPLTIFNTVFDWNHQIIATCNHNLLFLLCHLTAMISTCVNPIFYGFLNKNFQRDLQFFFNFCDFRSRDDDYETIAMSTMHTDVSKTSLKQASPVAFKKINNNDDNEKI
How it was run: as §1

[6] = target: T6, Human δ-opioid (DOP) (Homo sapiens, UniProt P41143); experiment: Radioligand binding, human δ-opioid (DOP) membranes, FlashPlate, [3H]-Bremazocine
T6 construct: purchased Perkin Elmer Biosignal
T6 sequence (P41143 whole entry): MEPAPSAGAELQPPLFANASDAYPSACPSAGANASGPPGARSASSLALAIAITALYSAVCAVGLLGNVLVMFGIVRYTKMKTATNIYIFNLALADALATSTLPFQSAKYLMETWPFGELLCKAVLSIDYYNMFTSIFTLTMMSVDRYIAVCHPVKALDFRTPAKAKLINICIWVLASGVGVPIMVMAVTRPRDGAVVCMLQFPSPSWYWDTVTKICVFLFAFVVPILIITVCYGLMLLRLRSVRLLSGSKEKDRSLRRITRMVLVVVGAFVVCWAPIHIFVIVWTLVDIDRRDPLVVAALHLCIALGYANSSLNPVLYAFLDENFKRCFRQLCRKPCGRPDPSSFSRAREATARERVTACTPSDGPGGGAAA
How it was run: as §1

[7] = target: T7, Human opioid (ORL1) (Homo sapiens, UniProt P41146); experiment: Radioligand binding, human opioid ORL1 membranes, FlashPlate, [125I]-Nociceptin
T7 construct: purchased Perkin Elmer Biosignal
T7 sequence (P41146 whole entry): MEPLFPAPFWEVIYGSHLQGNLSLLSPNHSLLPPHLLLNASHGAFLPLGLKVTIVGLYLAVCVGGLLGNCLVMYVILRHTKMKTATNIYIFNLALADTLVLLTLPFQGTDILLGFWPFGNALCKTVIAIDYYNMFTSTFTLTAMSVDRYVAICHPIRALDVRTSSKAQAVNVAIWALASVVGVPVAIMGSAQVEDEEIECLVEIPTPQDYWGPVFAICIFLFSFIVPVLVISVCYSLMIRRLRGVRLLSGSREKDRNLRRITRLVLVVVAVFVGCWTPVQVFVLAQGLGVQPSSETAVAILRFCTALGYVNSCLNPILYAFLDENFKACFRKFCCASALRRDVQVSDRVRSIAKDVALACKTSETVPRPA
How it was run: as §1

[8] = target: T8, Human melanocortin (MC5) (Homo sapiens, UniProt P33032); experiment: Radioligand binding, human melanocortin MC5 membranes, FlashPlate, [125I]-NDP-αMSH
T8 construct: purchased Perkin Elmer Biosignal
T8 sequence (P33032 whole entry): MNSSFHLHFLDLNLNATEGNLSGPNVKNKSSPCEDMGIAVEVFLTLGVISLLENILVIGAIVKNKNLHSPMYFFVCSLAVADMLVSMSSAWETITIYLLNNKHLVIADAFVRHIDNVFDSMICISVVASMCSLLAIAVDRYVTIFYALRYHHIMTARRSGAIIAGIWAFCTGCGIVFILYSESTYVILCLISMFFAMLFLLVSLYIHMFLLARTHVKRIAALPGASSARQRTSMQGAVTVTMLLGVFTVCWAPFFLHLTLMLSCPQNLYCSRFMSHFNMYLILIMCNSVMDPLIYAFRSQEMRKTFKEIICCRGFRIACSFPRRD
How it was run: as §1

[9] = target: T9, Human κ-Opioid (KOP) (Homo sapiens, UniProt P41145); experiment: Radioligand binding, human κ-opioid (KOP) membranes, filtration, [3H]-Diprenorphine
T9 construct: purchased Perkin Elmer Biosignal
T9 sequence (P41145 whole entry): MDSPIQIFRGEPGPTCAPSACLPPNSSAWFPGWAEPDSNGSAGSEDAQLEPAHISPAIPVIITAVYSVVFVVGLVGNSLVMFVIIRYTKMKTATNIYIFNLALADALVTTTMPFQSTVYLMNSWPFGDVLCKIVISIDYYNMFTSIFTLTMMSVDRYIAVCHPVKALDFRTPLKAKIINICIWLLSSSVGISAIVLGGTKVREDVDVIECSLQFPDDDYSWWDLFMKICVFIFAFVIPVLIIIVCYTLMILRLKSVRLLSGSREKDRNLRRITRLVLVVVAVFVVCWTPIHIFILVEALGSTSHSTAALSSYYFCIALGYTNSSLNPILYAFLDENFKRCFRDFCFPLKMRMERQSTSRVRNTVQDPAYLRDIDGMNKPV
How it was run: as §2

[10] = target: T10, Mouse urotensin (mUR2) (Mus musculus, UniProt Q8VIH9); experiment: Radioligand binding, mouse urotensin mUR2 membranes, FlashPlate, [125I]-Urotensin II
T10 construct: purchased Perkin Elmer Biosignal
T10 sequence (Q8VIH9 1-385): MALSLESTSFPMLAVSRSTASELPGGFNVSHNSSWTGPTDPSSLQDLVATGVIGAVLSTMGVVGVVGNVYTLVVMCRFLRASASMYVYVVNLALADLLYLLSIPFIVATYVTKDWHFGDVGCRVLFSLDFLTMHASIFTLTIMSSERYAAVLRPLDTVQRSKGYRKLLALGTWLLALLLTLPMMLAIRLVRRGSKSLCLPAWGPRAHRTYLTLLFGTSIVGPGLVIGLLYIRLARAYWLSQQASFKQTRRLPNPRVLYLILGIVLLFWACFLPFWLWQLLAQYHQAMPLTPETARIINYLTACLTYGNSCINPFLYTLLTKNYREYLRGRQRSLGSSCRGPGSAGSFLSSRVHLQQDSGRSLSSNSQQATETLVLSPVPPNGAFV
How it was run: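 Cloned mouse urotensin (mUR2) receptor membranes from Perkin Elmer Biosignal were immobilized in FlashPlate microplates using a proprietary coating. Each well got 19.5 μl buffer, then 0.5 μl of DMSO, reference ligand, or compound. Adding 5 μl of [125I]-Urotensin II, diluted to 5× final concentration in binding buffer, started binding. Plates were sealed with TopSeal-A and incubated 1 hour at room temperature in the dark. Wells were counted for 30 seconds each on a TopCount after a 60-second delay, and percentage inhibition was calculated.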

[11] = target: T11, Human melanin-concentrating hormone (MCH1) (Homo sapiens, UniProt Q99705); experiment: Radioligand binding, human melanin-concentrating hormone MCH1 membranes, FlashPlate, [125I]-S36057
T11 construct: purchased Perkin Elmer Biosignal
T11 sequence (Q99705 whole entry): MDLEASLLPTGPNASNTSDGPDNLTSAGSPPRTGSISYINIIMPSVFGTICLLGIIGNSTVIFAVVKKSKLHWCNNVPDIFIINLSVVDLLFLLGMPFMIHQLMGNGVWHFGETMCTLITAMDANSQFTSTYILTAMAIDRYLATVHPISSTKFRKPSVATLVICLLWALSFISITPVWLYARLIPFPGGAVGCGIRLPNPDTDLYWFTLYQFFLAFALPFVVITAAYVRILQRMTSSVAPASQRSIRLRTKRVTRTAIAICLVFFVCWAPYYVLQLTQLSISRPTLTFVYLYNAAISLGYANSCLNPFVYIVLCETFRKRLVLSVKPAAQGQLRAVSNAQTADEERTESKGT
How it was run: as §1

T1 sequence (P35372 whole entry): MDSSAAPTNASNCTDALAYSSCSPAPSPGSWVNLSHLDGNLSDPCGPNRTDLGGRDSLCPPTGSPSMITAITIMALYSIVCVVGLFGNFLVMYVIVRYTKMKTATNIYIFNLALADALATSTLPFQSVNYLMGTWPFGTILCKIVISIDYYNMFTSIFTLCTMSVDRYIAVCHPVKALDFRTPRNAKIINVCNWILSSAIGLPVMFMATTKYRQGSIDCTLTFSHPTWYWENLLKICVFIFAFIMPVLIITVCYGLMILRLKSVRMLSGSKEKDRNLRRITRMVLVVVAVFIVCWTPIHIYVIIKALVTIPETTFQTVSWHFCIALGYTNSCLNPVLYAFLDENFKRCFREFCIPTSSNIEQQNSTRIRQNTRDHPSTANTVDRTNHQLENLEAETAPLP

## CSC1O[C@H](COCc2ccc(-c3ccccc3)cc2)[C@@H](O)[C@@H](OCc2ccc(Cl)cc2)[C@H]1NC(=O)CNC(=N)N (stereo partly shown) [compound 275]
[1]; [3H]-Naloxone, FlashPlate
  A7: inhibition of radioligand binding: − (“−” indicates less than 50% inhibition at 10 μM)
[2]; [125I]-Substance P, filtration
  A8: inhibition of radioligand binding: + (“+” indicates greater than 50% inhibition at 10 μM)
[3]; [125I]-NDP-αMSH, FlashPlate
  A3: inhibition of radioligand binding: − (“−” indicates less than 50% inhibition at 10 μM)
[4]; [125I]-NDP-αMSH, FlashPlate
  A4: inhibition of radioligand binding: + (“+” indicates greater than 50% inhibition at 10 μM)
[5]; [125I]-PYY, FlashPlate
  A9: inhibition of radioligand binding: − (“−” indicates less than 50% inhibition at 10 μM)
[6]; [3H]-Bremazocine, FlashPlate
  A1: inhibition of radioligand binding: − (“−” indicates less than 50% inhibition at 10 μM)
[7]; [125I]-Nociceptin, FlashPlate
  A10: inhibition of radioligand binding: − (“−” indicates less than 50% inhibition at 10 μM)
[8]; [125I]-NDP-αMSH, FlashPlate
  A5: inhibition of radioligand binding: + (“+” indicates greater than 50% inhibition at 10 μM)
[9]; [3H]-Diprenorphine, filtration
  A2: inhibition of radioligand binding: − (“−” indicates less than 50% inhibition at 10 μM)
[10]; [125I]-Urotensin II, FlashPlate
  A11: inhibition of radioligand binding: − (“−” indicates less than 50% inhibition at 10 μM)
[11]; [125I]-S36057, FlashPlate
  A6: inhibition of radioligand binding: − (“−” indicates less than 50% inhibition at 10 μM)

## N=C(N)NCCC(=O)NC1C(OCc2ccc(Cl)cc2)OC(COCc2ccc3ccccc3c2)C(O)C1OCc1ccc2ccccc2c1 (stereo not shown) [compound 429]
[1]; [3H]-Naloxone, human MOP membranes
  A7: inhibition of radioligand binding: − (“−” indicates less than 50% inhibition at 10 μM)
[2]; [125I]-Substance P, human NK1 membranes
  A8: inhibition of radioligand binding: + (“+” indicates greater than 50% inhibition at 10 μM)
[3]; [125I]-NDP-αMSH, human MC3 membranes
  A3: inhibition of radioligand binding: + (“+” indicates greater than 50% inhibition at 10 μM)
[4]; [125I]-NDP-αMSH, human MC4 membranes
  A4: inhibition of radioligand binding: + (“+” indicates greater than 50% inhibition at 10 μM)
[5]; [125I]-PYY, human NPY-Y1 membranes
  A9: inhibition of radioligand binding: − (“−” indicates less than 50% inhibition at 10 μM)
[6]; [3H]-Bremazocine, human DOP membranes
  A1: inhibition of radioligand binding: − (“−” indicates less than 50% inhibition at 10 μM)
[7]; [125I]-Nociceptin, human ORL1 membranes
  A10: inhibition of radioligand binding: − (“−” indicates less than 50% inhibition at 10 μM)
[8]; [125I]-NDP-αMSH, human MC5 membranes
  A5: inhibition of radioligand binding: + (“+” indicates greater than 50% inhibition at 10 μM)
[9]; [3H]-Diprenorphine, human KOP membranes
  A2: inhibition of radioligand binding: − (“−” indicates less than 50% inhibition at 10 μM)
[10]; [125I]-Urotensin II, mouse mUR2 membranes
  A11: inhibition of radioligand binding: − (“−” indicates less than 50% inhibition at 10 μM)
[11]; [125I]-S36057, human MCH1 membranes
  A6: inhibition of radioligand binding: + (“+” indicates greater than 50% inhibition at 10 μM)

## COCC1OC(OCc2ccccc2)C(NC(=O)CCCNC(=N)N)C(OCc2ccc(Cl)cc2)C1O (stereo not shown) [compound 181]
[1]; [3H]-Naloxone
  A7 radioligand binding, percentage inhibition: − (“−” indicates less than 50% inhibition at 10 μM)
[2]; [125I]-Substance P
  A8 radioligand binding, percentage inhibition: + (“+” indicates greater than 50% inhibition at 10 μM)
[3]; [125I]-NDP-αMSH
  A3 radioligand binding, percentage inhibition: − (“−” indicates less than 50% inhibition at 10 μM)
[4]; [125I]-NDP-αMSH
  A4 radioligand binding, percentage inhibition: + (“+” indicates greater than 50% inhibition at 10 μM)
[5]; [125I]-PYY
  A9 radioligand binding, percentage inhibition: − (“−” indicates less than 50% inhibition at 10 μM)
[6]; [3H]-Bremazocine
  A1 radioligand binding, percentage inhibition: − (“−” indicates less than 50% inhibition at 10 μM)
[7]; [125I]-Nociceptin
  A10 radioligand binding, percentage inhibition: − (“−” indicates less than 50% inhibition at 10 μM)
[8]; [125I]-NDP-αMSH
  A5 radioligand binding, percentage inhibition: + (“+” indicates greater than 50% inhibition at 10 μM)
[9]; [3H]-Diprenorphine
  A2 radioligand binding, percentage inhibition: − (“−” indicates less than 50% inhibition at 10 μM)
[10]; [125I]-Urotensin II
  A11 radioligand binding, percentage inhibition: − (“−” indicates less than 50% inhibition at 10 μM)
[11]; [125I]-S36057
  A6 radioligand binding, percentage inhibition: + (“+” indicates greater than 50% inhibition at 10 μM)

## N=C(N)NCC(=O)N[C@H]1C(OCc2ccc(Cl)cc2)O[C@H](COCc2ccc(Cl)cc2)[C@@H](O)[C@@H]1OCc1ccc(-c2ccccc2)cc1 (stereo partly shown) [compound 520]
[1]; [3H]-Naloxone
  A7: inhibition of radioligand binding, human μ-opioid (MOP): − (“−” indicates less than 50% inhibition at 10 μM)
[2]; [125I]-Substance P
  A8: inhibition of radioligand binding, human neurokinin (NK1): + (“+” indicates greater than 50% inhibition at 10 μM)
[3]; [125I]-NDP-αMSH
  A3: inhibition of radioligand binding, human melanocortin (MC3): + (“+” indicates greater than 50% inhibition at 10 μM)
[4]; [125I]-NDP-αMSH
  A4: inhibition of radioligand binding, human melanocortin (MC4): + (“+” indicates greater than 50% inhibition at 10 μM)
[5]; [125I]-PYY
  A9: inhibition of radioligand binding, human neuropeptide Y (NPY-Y1): − (“−” indicates less than 50% inhibition at 10 μM)
[6]; [3H]-Bremazocine
  A1: inhibition of radioligand binding, human δ-opioid (DOP): − (“−” indicates less than 50% inhibition at 10 μM)
[7]; [125I]-Nociceptin, 10 µM
  A10: inhibition of radioligand binding, human opioid (ORL1): − (“−” indicates less than 50% inhibition at 10 μM)
[8]; [125I]-NDP-αMSH
  A5: inhibition of radioligand binding, human melanocortin (MC5): + (“+” indicates greater than 50% inhibition at 10 μM)
[9]; [3H]-Diprenorphine
  A2: inhibition of radioligand binding, human κ-opioid (KOP): − (“−” indicates less than 50% inhibition at 10 μM)
[10]; [125I]-Urotensin II
  A11: inhibition of radioligand binding, mouse urotensin (mUR2): − (“−” indicates less than 50% inhibition at 10 μM)
[11]; [125I]-S36057
  A6: inhibition of radioligand binding, human melanin-concentrating hormone (MCH1): + (“+” indicates greater than 50% inhibition at 10 μM)

## CO[C@H]1[C@H](O)[C@@H](COCc2ccc(Cl)cc2)OC(OCc2ccc3ccccc3c2)[C@@H]1NC(=O)CCCN (stereo partly shown) [compound 80]
[1]; human μ-opioid (MOP) membranes
  A7 radioligand binding inhibition: − (“−” indicates less than 50% inhibition at 10 μM)
[2]; human neurokinin NK1 membranes
  A8 radioligand binding inhibition: + (“+” indicates greater than 50% inhibition at 10 μM)
[3]; human melanocortin MC3 membranes
  A3 radioligand binding inhibition: − (“−” indicates less than 50% inhibition at 10 μM)
[4]; human melanocortin MC4 membranes
  A4 radioligand binding inhibition: + (“+” indicates greater than 50% inhibition at 10 μM)
[5]; human NPY-Y1 membranes
  A9 radioligand binding inhibition: − (“−” indicates less than 50% inhibition at 10 μM)
[6]; human δ-opioid (DOP) membranes
  A1 radioligand binding inhibition: − (“−” indicates less than 50% inhibition at 10 μM)
[7]; human ORL1 membranes
  A10 radioligand binding inhibition: − (“−” indicates less than 50% inhibition at 10 μM)
[8]; human melanocortin MC5 membranes
  A5 radioligand binding inhibition: + (“+” indicates greater than 50% inhibition at 10 μM)
[9]; human κ-opioid (KOP) membranes
  A2 radioligand binding inhibition: − (“−” indicates less than 50% inhibition at 10 μM)
[10]; mouse urotensin mUR2 membranes
  A11 radioligand binding inhibition: − (“−” indicates less than 50% inhibition at 10 μM)
[11]; human MCH1 membranes
  A6 radioligand binding inhibition: − (“−” indicates less than 50% inhibition at 10 μM)
